The test system of assay [1] is MCF10A cells. In words: Protrusions in suspended cells treated with cytoskeletal inhibitors (MCF10A). Further details: protrusions counted with phase-contrast microscopy: dose or concentration left out as unconfirmed. Format: cell-based, human. As to the method: (§1) In FIG. 2A, after 15 minutes of suspension, protrusions in EpH4 and MCF10A cells are quite small (Control, white arrows). […] In FIG. 2B, populations of live, suspended cells were scored blindly for two or more protrusions longer than the cell radius. Each bar represents the mean+S.D. for three experiments in which at least 100 single cells were counted.
(§2) In order to initially characterize the cytoskeletal mechanism underlying these protrusions, suspended cells were treated with inhibitors of actin and tubulin polymerization (FIG. 2). After 15 minutes of suspension, the protrusions in untreated EpH4 or MCF10A cells remain fairly short (FIG. 2, white arrows). These early protrusions can often be difficult to detect with phase-contrast microscopy, due to interfering light refraction from the plasma membrane. […] Protrusions were more easily visible with immunofluorescence than phase contrast microscopy (FIG. 3, white arrows). Although actin filament staining was generally low along the length of the protrusion, dense points of actin were often found at the end of protrusions (FIG. 3, arrowheads).
The nontumorigenic human mammary epithelial cell line (MCF10A) or the indicated human breast tumor cell lines were grown in suspension for 30-60 minutes, and protrusions were counted in random fields with phase-contrast microscopy. Values represent the mean±S.D. of three experiments in which at least 100 cells were counted. […] This effect was most apparent in the highly metastatic but exemplary Bt-474 and MDA-MB-231 cells (pictured, black arrows). The exemplary MCF10A cells show far fewer and shorter protrusions at the same time point (pictured, white arrows). Such protrusions are not observed in attached cells.

Assay [2] deals with EpH4-Bcl2 cells. The experiment in a line: Cell-cell attachment assay. The assay is classed as cell-based, mouse. The note with it: EpH4-Bcl2 in 0.3% methylcellulose over agarose, 5 hours; listed as LA. As to the method:
In FIG. 6A, EpH4-Bcl2 cells were suspended over agarose and treated with inhibitors as above. Following treatment, cells were plated into 0.3% methylcellulose media over agarose and the rate of cell-cell attachment was followed by Hoescht DNA staining. […] Similar results were found in three independent experiments. In FIG. 6B, EpH4-Bcl2 cells suspended over agarose for one hour in DMEM or DMEM containing LA (5 μM), Colchicine (1 μM), or the combination. Reattachment of these cells to either uncoated tissue culture plates or those pre-coated with laminin was followed by XTT cell viability assay. Values represent mean+S.D. of raw XTT values of three separate experiments.
B19 cells were seeded onto 10 cm dishes until 80% confluency. The media was aspirated and cells were incubated in fresh growth media containing Hoescht 33342 (1:5000) for 30 min at 37° C. to label all attached cells. The cells were washed twice in PBS, detached by trypsinization, and an equivalent number of cells were resuspended in serum-free media containing 0.3% methylcellulose with either 5 μM Latrunculin A, 100 μM Colchicine, 1 μg/ml vinblastine, or 5 μg/ml nocodazole and plated over 2% agarose-coated 24-well plates. The progression of cell-cell adhesion over time was visualized by the EpiChemi3 Imaging System (UVP, Inc.; Upland, Calif.) using an excitation wavelength of 365 nm and a blue band pass filter. Images were obtained with an attached Hamamatsu CCD camera (Hamamatsu Photonics, Hamamatsu City, Japan) and analyzed with UVP Labworks Image Acquisition and Analysis Software v. 4.6.
To determine if these microtubule protrusions influence the ability of cells to form attachments, the cells were treated with inhibitors of actin or tubulin polymerization and assessed both cell-cell and cell-substratum attachment (FIG. 6). […] Induction of such nonspecific attachment activity in detached mammary epithelial cells could promote tumor cell dissemination, particularly when apoptotic resistance allows this response to continue for extended periods.

For assay [3], the system named is EpH4 cells. In words: Protrusions in suspended cells treated with cytoskeletal inhibitors (EpH4). Format: cell-based, mouse. The protocol:
as §1
EpH4 cells were suspended in either DMEM (Control) or media containing 5 μM Latrunculin-A (LA), 1 μM Colchicine or the combination of both drugs for 30 minutes. Cells were then spun onto glass coverslips and fluorescently stained for α-tubulin (green) and polymerized actin (red). Protrusions that are difficult to see by phase contrast are easily discernible with immunostaining for α-tubulin (white arrows). Protrusions contain little polymerized actin, except at points of concentration, which are often at the end (arrowhead).
EpH4 and B19 cells were suspended over 2% agarose coated plates to prevent attachment in either serum-free DMEM or media containing. Latrunculin-A (5 μM) to enhance protrusions. For co-staining of α-tubulin and actin, suspended cells were then centrifuged onto poly-L-lysine coated coverslips (280 g×5 min), fixed in 3.7% formaldehyde in PBS for 10 min, and permeablized with 0.1% Triton X-100 in PBS. Adhered cells were then stained for 1 hr at room temperature using FITC-conjugated anti-α-tubulin (1:200; Sigma), Alexa-594 phalloidin (1:100; Molecular Probes), and Hoescht 33342 (1:5000; Sigma).
as §2

Entries after “also recorded” stand apart in the source; their conditions may differ.

Take `C/C1=C/C(=O)O[C@@H]2C[C@@H](CC[C@H](C)/C=C\C=C\CC1)O[C@@](O)([C@@H]1CSC(=O)N1)C2` [Latrunculin-A]: in assay [1] (MCF10A in suspension 30-60 minutes, LA), the “protrusions counted with phase-contrast microscopy” value is listed as “increases protrusions”. The protrusions entry in assay [1] (MCF10A, 15 minutes of suspension, Latrunculin-A 5 μM, Colchicine 1 μM, listed as latrunculin-A) is “significantly enhanced both the number and length of protrusions”; in assay [3] (EpH4, 15 minutes of suspension, Latrunculin-A 5 μM, Colchicine 1 μM, listed as latrunculin-A), “significantly enhanced both the number and length of protrusions”. The “cell-cell attachment (clustering)” value in assay [2] is “did speed the rate at which cells bound to each other; also recorded: cluster similarly or even more tightly compared to control cells”. For the same molecule, in assay [3] (EpH4 suspended 30 minutes, LA 5 μM, listed as LA), the “microtubule protrusions by immunofluorescence (α-tubulin)” value is “increase the number and length of microtubule protrusions; also recorded: strongly enhances the formation of microtubule protrusions”.

Source of the values: patent publication US8193238B2, “Inhibition of microtubule protrusion in cancer cells” (University of Maryland, Baltimore, priority 2006, dated 2012).
